PMC6155021, “Ancient and modern anticonvulsants act synergistically in a KCNQ potassium channel binding pocket” (Nature Communications, 2018)

Experiments:
[1] = parameters: method as in PMID 24781306; settings: cited from earlier work
[2] = molecular target: T1, KCNQ2/3 channels (Homo sapiens, UniProt O43525+O43526); settings: previously found, cited from earlier work
[3] = cited from earlier work
[4] = molecular target: KCNA1 (Homo sapiens, UniProt Q09470); experiment: Two-electrode voltage-clamp of KCNA1 in Xenopus oocytes; assay type: cell-based
Excerpt: (§1) cRNA transcripts encoding human KCNA1, KCNQ1, KCNQ2, KCNQ3, KCNQ4, or KCNQ5 were generated by in vitro transcription using the T7 polymerase message machine kit (Thermo Fisher Scientific), after vector linearization, from cDNA sub-cloned into plasmids incorporating X. laevis β-globin 5′ and 3′ UTRs flanking the coding region to enhance translation and cRNA stability. cRNA was quantified by spectrophotometry. Mutant cDNAs were generated by site-directed mutagenesis using a QuikChange kit according to manufacturer’s protocol (Stratagene, San Diego, CA) and corresponding cRNAs prepared as above. Defolliculated stage V and VI X. laevis oocytes (Ecocyte Bioscience, Austin, TX) were injected with Kv channel α subunit cRNAs (10 ng total per oocyte). Oocytes were incubated at 16 °C in Barth’s saline solution (Ecocyte) containing penicillin and streptomycin, with daily washing, for 3–5 days prior to two-electrode voltage-clamp (TEVC) recording.
Oocytes were placed in a small-volume oocyte bath (Warner) and viewed with a dissection microscope. Chemicals were sourced from Sigma. Bath solution was (in mM): 96 NaCl, 4 KCl, 1 MgCl2, 1 CaCl2, 10 HEPES (pH 7.6). […] MTX (DMSO), sorbic acid (ethanol), and glutaconic acid (molecular grade H2O) were stored at −20 °C as 1 M stocks. Oleamide was stored as a 1 mM stock in ethanol at 4 °C. Palmitic acid was conjugated with bovine serum albumin as a 1 mM stock and stored at −20 °C. All compounds were diluted to working concentrations each experimental day. All compounds were introduced to the recording bath via gravity perfusion at a constant flow of 1 ml/min for 3 min prior to recording. Pipettes were of 1–2 MΩ resistance when filled with 3 M KCl. Currents were recorded in response to pulses between −80 and +40 mV at 20 mV intervals, or a single pulse to +40 mV, from a holding potential of −80 mV, to yield current–voltage relationships, current magnitude, and for quantifying activation rate. […]

[5] = tested on: pentylene tetrazole-induced seizures; experiment: PTZ chemoconvulsant assay; assay type: in vivo, mouse; settings: mice
Excerpt: We compared anticonvulsant activities of test compounds in male C57BL/6 mice (Charles River) aged 2–3 months. Mice were housed and used according to the recommendations in the Guide for the Care and Use of Laboratory Animals of the National Institutes of Health (NIH Publication, 8th edition, 2011). The study protocol was approved by the Institutional Animal Care and Use Committee of University of California, Irvine, which confirmed that all relevant ethical regulations were adhered to. Chemicals were sourced from Sigma (St. Louis, MO, USA) . A pentylene tetrazole (PTZ) chemoconvulsant assay was used[54]. […] Following the PTZ injection, mice were caged individually and an observer (GWA) blinded to the drug used recorded, over 20 min, clonic and tonic seizure incidence, and seizure-related mortality.
All values are expressed as mean ± SEM. Chi-squared analysis was used to compare seizure-related mortality in mice. One-way ANOVA was applied for all other tests; if multiple comparisons were performed, a post-hoc Tukey’s HSD test was performed following ANOVA. All p-values were two-sided. Statistical significance was defined as p < 0.05.

[6] = molecular target: T1, KCNQ2/3 channels; experiment: Two-electrode voltage-clamp of KCNQ2/3 channels expressed in Xenopus laevis oocytes; assay type: cell-based; settings: for Non-normalized tail current V0.5 / Normalized tail current V0.5 / Slope: KCNQ2/3
Excerpt: as §1
(§2) Oocytes were placed in a small-volume oocyte bath (Warner) and viewed with a dissection microscope. Chemicals were sourced from Sigma. Bath solution was (in mM): 96 NaCl, 4 KCl, 1 MgCl2, 1 CaCl2, 10 HEPES (pH 7.6). […] MTX (DMSO), sorbic acid (ethanol), and glutaconic acid (molecular grade H2O) were stored at −20 °C as 1 M stocks. Oleamide was stored as a 1 mM stock in ethanol at 4 °C. Palmitic acid was conjugated with bovine serum albumin as a 1 mM stock and stored at −20 °C. All compounds were diluted to working concentrations each experimental day. All compounds were introduced to the recording bath via gravity perfusion at a constant flow of 1 ml/min for 3 min prior to recording. Pipettes were of 1–2 MΩ resistance when filled with 3 M KCl. Currents were recorded in response to pulses between −80 and +40 mV at 20 mV intervals, or a single pulse to +40 mV, from a holding potential of −80 mV, to yield current–voltage relationships, current magnitude, and for quantifying activation rate. TEVC data analysis was performed with Clampfit10.2 (Molecular Devices) and Graphpad Prism software (GraphPad, San Diego, CA, USA); values are stated as mean ± SEM. Normalized tail currents were plotted versus prepulse voltage and fitted with a single Boltzmann function:1 g=A1-A2/1+expV12-Vy+A2, where g is the normalized tail conductance, A1 is the initial value at −∞, A2 is the final value at +∞, V1/2 is the half-maximal voltage of activation, and Vs the slope factor. Activation and deactivation kinetics were fitted with single-exponential functions.

[7] = molecular target: KCNQ2-W236L/KCNQ3-W265L channels (Homo sapiens, UniProt O43525+O43526, W236L/W265L); experiment: Two-electrode voltage-clamp of W236L-Q2/W265L-Q3 mutant channels in Xenopus oocytes; assay type: cell-based; settings: 100 µM
Excerpt: as §1, §2

[8] = molecular target: KCNQ5 (Homo sapiens, UniProt Q9NR82); experiment: cell-based; assay type: cell-based; settings: KCNQ5; 1 µM
Excerpt: as §1, §2

[9] = molecular target: KCNQ4 (Homo sapiens, UniProt P56696); experiment: cell-based; assay type: cell-based; settings: KCNQ4; 1 µM
Excerpt: as §1, §2

[10] = molecular target: KCNQ3* (KCNQ3-A315T) (Homo sapiens, UniProt O43525, A315T); experiment: cell-based; assay type: cell-based; settings: KCNQ3*; 1 µM
Excerpt: as §1, §2

[11] = molecular target: T2, KCNQ2 (Homo sapiens, UniProt O43526); parameters: method as in PMID 11466425; settings: 10 µM RTG; cited from earlier work
[12] = molecular target: T2, KCNQ2; experiment: Two-electrode voltage-clamp of homomeric KCNQ2 in Xenopus oocytes; assay type: cell-based; settings: KCNQ2; 1 µM
Excerpt: as §1, §2

[13] = tested on: KCNQ2–5; settings: cited from earlier work

KCNA1, sequence (Q09470 whole entry): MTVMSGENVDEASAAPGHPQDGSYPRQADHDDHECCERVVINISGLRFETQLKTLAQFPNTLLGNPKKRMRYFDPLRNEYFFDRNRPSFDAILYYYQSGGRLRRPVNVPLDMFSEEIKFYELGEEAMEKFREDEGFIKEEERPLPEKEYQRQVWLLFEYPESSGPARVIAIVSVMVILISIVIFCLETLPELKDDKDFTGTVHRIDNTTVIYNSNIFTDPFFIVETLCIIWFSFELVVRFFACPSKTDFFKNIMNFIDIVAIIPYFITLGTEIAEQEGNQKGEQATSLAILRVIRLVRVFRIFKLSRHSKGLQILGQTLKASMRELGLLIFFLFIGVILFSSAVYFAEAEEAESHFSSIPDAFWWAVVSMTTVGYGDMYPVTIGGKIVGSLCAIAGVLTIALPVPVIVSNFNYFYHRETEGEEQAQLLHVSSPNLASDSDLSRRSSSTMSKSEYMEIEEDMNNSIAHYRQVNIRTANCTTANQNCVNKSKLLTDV
KCNQ3* (KCNQ3-A315T), sequence (O43525 whole entry A315T, looked up): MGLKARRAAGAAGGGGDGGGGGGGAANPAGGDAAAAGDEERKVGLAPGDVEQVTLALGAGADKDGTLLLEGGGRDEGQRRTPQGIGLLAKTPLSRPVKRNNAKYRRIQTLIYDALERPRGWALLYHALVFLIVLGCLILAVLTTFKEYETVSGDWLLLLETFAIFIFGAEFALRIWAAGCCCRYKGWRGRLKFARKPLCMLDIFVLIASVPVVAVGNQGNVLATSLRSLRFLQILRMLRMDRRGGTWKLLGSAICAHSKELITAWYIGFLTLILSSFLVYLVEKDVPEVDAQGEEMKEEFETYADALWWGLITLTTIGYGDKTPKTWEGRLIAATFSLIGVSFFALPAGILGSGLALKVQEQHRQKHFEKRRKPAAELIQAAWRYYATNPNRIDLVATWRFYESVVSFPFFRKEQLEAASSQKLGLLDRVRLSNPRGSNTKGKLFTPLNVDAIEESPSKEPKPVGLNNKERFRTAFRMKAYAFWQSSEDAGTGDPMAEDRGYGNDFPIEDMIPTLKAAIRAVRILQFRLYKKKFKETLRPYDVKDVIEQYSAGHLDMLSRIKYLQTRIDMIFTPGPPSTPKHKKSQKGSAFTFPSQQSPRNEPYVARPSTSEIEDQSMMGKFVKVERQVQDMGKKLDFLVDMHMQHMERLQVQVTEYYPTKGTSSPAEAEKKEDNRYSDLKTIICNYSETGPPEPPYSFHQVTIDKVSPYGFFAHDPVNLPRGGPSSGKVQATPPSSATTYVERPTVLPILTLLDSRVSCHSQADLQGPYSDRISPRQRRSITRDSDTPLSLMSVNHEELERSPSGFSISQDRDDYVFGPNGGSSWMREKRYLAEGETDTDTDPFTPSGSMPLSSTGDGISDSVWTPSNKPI

CC(=O)O [acetate]
crossing of the blood brain barrier [1]: readily cross the blood brain barrier

CCCCC(=O)O [valeric acid]
ability to activate KCNQ2/3 channels [2]: inactive

CC(C)CC(N)=O [Isovaleramide, isovaleramide]
passage through biological membranes [3]: readily passes though biological membranes
mean Tmax ([3]; humans): 0.5 to 0.75 h
mean elimination half-life ([3]; humans): 2.5 h
well tolerated dose ([3]; humans): at least 2400 mg per day

CC(C)CC(=O)O [IVA, isovaleric acid]
Slope ([4]; KCNA1 (table title), 500 µM): 6.9 ± 1.1 mV
effect on KCNA1 currents ([4]; MTX concentration not given, IVA 500 µM): did not alter currents
clonic seizure incidence ([5]; 10 mg/kg i.p. alone): neither compound reduced clonic seizures alone
clonic seizure incidence ([5]; 20 mg/kg i.p., 30 min before 80 mg kg−1 PTZ): no effect
suppression of PTZ-induced tonic seizures ([5]; individually): ineffective

NCC(O)CC(=O)O (stereo not drawn) [GABOB, γ-amino-β-hydroxybutyric acid, reference compound]
EC50 ([2]; high affinity partial agonist): 120 nM
effect of GABOB on IVA effects on KCNQ2/3 ([6]; GABOB 100 µM with IVA 500 µM): highly effective at competing out effects of IVA
effect of GABOB on MTX effects on KCNQ2/3 ([6]; GABOB 100 µM with MTX 30 µM): only partially diminishes

Oc1ccccc1S [2-Mercaptophenol, 2-mercaptophenol]
sensitivity of KCNQ2-W236L/KCNQ3-W265L channels [7]: insensitive
Non-normalized tail current V0.5 ([7]; W236L-Q2/W265L-Q3): -53.8 ± 1.7 mV
Normalized tail current V0.5 ([7]; W236L-Q2/W265L-Q3): -51.0 ± 4.2 mV
effect on voltage dependence of KCNQ2/3 activation (initial screen) ([6]; 100 µM, tail currents at −30 mV): positive-shifted
effect of 2-mercaptophenol on ability of MTX to activate KCNQ2/3 ([6]; 2-mercaptophenol 100 µM with MTX 30 µM): did not alter
Non-normalized tail current V0.5 ([6]; 0.01 µM): -37.2 ± 3.7 mV
Normalized tail current V0.5 ([6]; 0.01 µM): -37.7 ± 1.5 mV
Slope ([6]; 0.01 µM): 7.4 ± 1.6 mV
Non-normalized tail current V0.5 ([6]; 0.1 µM): -40.9 ± 3.2 mV
Normalized tail current V0.5 ([6]; 0.1 µM): -43.4 ± 3.6 mV
Slope ([6]; 0.1 µM): 5.4 ± 1.2 mV
Non-normalized tail current V0.5 ([6]; 1 µM): -43.2 ± 2.6 mV
Normalized tail current V0.5 ([6]; 1 µM): -43.6 ± 0.8 mV
Slope ([6]; 1 µM): 6.4 ± 0.9 mV
Non-normalized tail current V0.5 ([6]; 10 µM): -43.2 ± 2.8 mV
Normalized tail current V0.5 ([6]; 10 µM): -43.7 ± 1.1 mV
Slope ([6]; 10 µM): 7.4 ± 1.1 mV
Non-normalized tail current V0.5 ([6]; 100 µM): -34.5 ± 4.6 mV
Normalized tail current V0.5 ([6]; 100 µM): -29.5 ± 2.5 mV
Slope ([6]; 100 µM): 5.0 ± 1.2 mV
Non-normalized tail current V0.5 ([6]; 300 µM): -22.5 ± 7.2 mV
Normalized tail current V0.5 ([6]; 300 µM): -19.8 ± 1.4 mV
Slope ([6]; 300 µM): 8.3 ± 0.9 mV
concentration at which KCNQ2/3 inhibition begins ([6]; activating at lower concentrations): ~ 100 µM

CCOC(=O)Nc1ccc(NCc2ccc(F)cc2)cc1N [Retigabine, retigabine, reference compound]
effects on KCNQ2/3 ([6]; 1 µM alone): negligible effects
Non-normalized tail current V0.5 ([6]; 1 µM): -41.7 ± 2.3 mV
Normalized tail current V0.5 ([6]; 1 µM): -41.9 ± 0.7 mV
Non-normalized tail current V0.5 ([6]; 10 µM): -61.8 ± 4.8 mV
Normalized tail current V0.5 ([6]; 10 µM): -61.4 ± 1.1 mV
Slope ([6]; 10 µM): 6.7 ± 1.1 mV
shift of KCNQ2/3 activation V0.5 ([6]; RTG 10 µM): −13 mV
Non-normalized tail current V0.5 [8]: -45.8 ± 2.8 mV
Normalized tail current V0.5 [8]: -46.0 ± 0.9 mV
Non-normalized tail current V0.5 [9]: -10.2 ± 7.5 mV
Normalized tail current V0.5 [9]: -9.7 ± 1.1 mV
Non-normalized tail current V0.5 [10]: -63.9 ± 7.7 mV
Normalized tail current V0.5 [10]: -61.9 ± 2.2 mV
shift in midpoint voltage of activation [11]: −24 mV
Non-normalized tail current V0.5 [12]: -51.6 ± 6.6 mV
Normalized tail current V0.5 [12]: -51.7 ± 0.7 mV
order of potency across KCNQ isoforms [13]: KCNQ3 > KCNQ2/3 > KCNQ2 > KCNQ4 > KCNQ5
